Test results as given in US20120202744A1, “DUAL ANTAGONISM OF ENDOTHELIN TYPE A AND BRADYKININ B1 RECEPTORS FOR TREATING PAIN AND PREVENTING CARTILAGE DEGRADATION” (priority 2011, published 2012).
Non-standard residues stand in square brackets, D forms with d. Residues, ends and D or L forms follow the SMILES beside them.

How the values were obtained:
[1] = test system: rat anterior cruciate ligament transection (ACLT) model of osteoarthritis; assay: Digital micro-X-ray (DX) OA radiological scoring of knee joints; assay type: in vivo; conditions: ACLT rats; for Mean radiological score: DX views, maximum possible score nine; for radiological indices of disease progression (DX) versus saline-treated controls: 0.0020≦P≦0.0214
Text: (§1) At four or eight weeks post-surgery, animals were sacrificed by cardiac puncture under deep isoflurane anaesthesia. The right knee was dissected, and 40-mm-long samples were cut and stored in phosphate-buffered saline until scanned by digital micro-X-ray (DX) and/or micro-magnetic resonance (MR) imaging. Samples were dissected the same day as the radiological scans.
All knee samples were X-rayed using a Faxitron MX-20™ specimen X-ray system (Faxitron X-Ray Corporation, Lincolnshire, Ill.). Anteroposterior and lateral views were acquired at 5× magnification (10×10 μm pixel size) using a dose of 26 kV for 6 seconds. Images were analyzed using OsiriX™ software (version 3.7.1) [Rosset et al. OsiriX: an open-source software for navigating in multidimensional DICOM images. Journal of digital imaging (2004) 17(3): 205-16]. Radiological evidence of joint degradation, such as joint space narrowing and osteophyte formation, was evaluated. Radiological evidence of joint degradation was scored by two blinded examiners using an OA radiological score modified from Clark et al. [Clark R L, Cuttino JT Jr, Anderle S K, Cromartie W J, Schwab J H: Radiologic analysis of arthritis in rats after systemic injection of streptococcal cell walls. Arthritis Rheum 1979, 22:25-35.] and Esser et al. [Esser R E, Hildebrand A R, Angelo R A, Watts L M, Murphey M D, Baugh L E: Measurement of radiographic changes in adjuvant-induced arthritis in rats by quantitative image analysis. Arthritis Rheum 1995, 38:129-38.]. Bone demineralization, subchondral bone erosion, and heterotopic ossification were all scored on a scale from zero (normal) to three (marked degenerative changes). Total scores were calculated by summing the individual scores for each index, with a maximum possible score of nine.
OA radiological scores were statistically analyzed by one-way ANOVA, with total scores taken as the dependent variable and treatment group as the independent variable. Pairwise post-hoc testing with Holm correction was used to establish significance in between treatment groups. P-values less than 0.05 were considered statistically significant. Analyses were conducted using R (version 2.11.0) [R Development Core Team: R: A Language and Environment for Statistical Computing. Vienna, Austria: R Foundation for Statistical Computing 2010.].

[2] = test system: rat anterior cruciate ligament transection (ACLT) model of osteoarthritis; assay: Cartilage and bone histomorphology (Safranin O/Fast Green) with OARSI histopathology scoring; assay type: in vivo; conditions: ACLT rats, eight weeks post-operatively, maximum value 24
Description: After radiological examination, knee samples were fixed in 10% neutral buffered formalin for two weeks, decalcified with RDO Rapid Decalcifier™ (Apex Engineering Products, Aurora, Ill.) for three days, circulated, and embedded in paraffin. Five-micron sagittal sections were acquired from the middle of the knee joint. Histomorphological staining was performed as previously described [Rosenberg L: Chemical basis for the histological use of safranin O in the study of articular cartilage. J Bone Joint Surg Am 1971, 53:69-82]: slides were deparrafinized, rehydrated, stained with Safranin O (which colours proteoglycans red) and Fast Green FCF (which colours collagens green), counterstained with hematoxylin, dehydrated, cleared, and mounted in Permount™. […]
Four slides from each condition were scored by two blinded examiners using the Osteoarthritis Research Society International (OARSI) histopathology assessment system [Pritzker K P H, Gay S, Jimenez S A, Ostergaard K, Pelletier J P, Revell P A, Salter D, van den Berg W B: Osteoarthritis cartilage histopathology: grading and staging. […]
OARSI scores were statistically analyzed by one-way ANOVA, with total scores taken as the dependent variable and treatment group as the independent variable. […]

[3] = test system: articular cartilage of ACLT rat knee; assay: Micro-magnetic resonance imaging of knee, cartilage mean T2; assay type: in vivo; conditions: ACLT rats, four weeks post-operatively; statistical significance between groups not achieved
Text: as §1
A subset of animals were sacrificed four weeks post-operatively and their right knees were imaged by micro-MR. Imaging was performed using a Bruker PharmaScan™ (Ettlingen, Germany) 7 Tesla MR scanner at the McGill University Small Animal Imaging Lab (Montreal, QC). Knee samples were placed in a custom-made support inside a 15-mL centrifuge tube, which was then filled with the MR-inert buffer FC-770™ (3M Fluorinert™ Electronic Liquid). Samples were introduced into a 1H mouse brain radio frequency (RF) coil (inner diameter 22 mm), and centred in the magnet. The RF coil was tuned and matched to the sample, and the magnet was then shimmed. The system was controlled via Bruker ParaVision™ software (version 5.0). […]
After acquisition, images were analyzed using OsiriX software (version 3.7.1). […] As well, images were analyzed for signs of cartilage decay, indicated by lower signal intensity of the articular surfaces. […]

COX-2 = COX-2 immunohistochemistry on articular cartilage of surgically induced OA; assay type: in vivo, rat; conditions: surgery-induced OA rats
Text: FIGS. 11A-11D are photomicrographs depicting the effect of BQ-123+R-954 dual inhibition. […] Tissues were obtained from surgery induced OA in a rat model Top panel represent COX-2 immunodetection on tissues from non-treated lesioned animals (FIG. 11A); BQ-123 treatment (FIG. 11B); R-954 treatment (FIG. 11C); BQ-123+R-954 dual treatment (FIG. 11D). Specific immune staining for COX-2 protein is observed as a darker color. Surgery, pharmacological treatment, and tissue collection and processing were performed as described in Kaufman et al., Arthritis Research and Therapy, 2011, 13:R76. FIG. 11E is a bar graph depicting the percentage of COX-2-positive chondrocytes in each of the conditions (mean of 5 slides counted per condition).
Method: 5-micron sections were processed for immunohistochemical detection of cyclooxygenase COX-2 as described above.

bradykinin receptor B2 = bradykinin receptor B2 (Homo sapiens, UniProt P30411); conditions: patients with painful knee osteoarthritis, intra-articular; cited from earlier work
Sequence of bradykinin receptor B2 (P30411 whole entry): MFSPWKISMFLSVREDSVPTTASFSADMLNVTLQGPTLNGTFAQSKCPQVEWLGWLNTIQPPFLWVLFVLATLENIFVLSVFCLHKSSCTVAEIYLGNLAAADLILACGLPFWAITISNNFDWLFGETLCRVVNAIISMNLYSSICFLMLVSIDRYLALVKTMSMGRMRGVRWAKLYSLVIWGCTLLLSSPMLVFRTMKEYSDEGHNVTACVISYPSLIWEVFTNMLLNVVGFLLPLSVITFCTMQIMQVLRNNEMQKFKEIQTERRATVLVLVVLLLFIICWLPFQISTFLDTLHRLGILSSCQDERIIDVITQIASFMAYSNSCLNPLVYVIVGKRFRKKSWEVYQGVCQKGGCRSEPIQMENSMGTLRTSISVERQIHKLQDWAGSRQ

SMILES | Mean radiological score [1] | radiological indices of disease progression (DX) versus saline-treated controls [1] | Mean OARSI score [2] | Mean T2 value [3] [ms] | COX-2 staining on articular cartilage (COX-2) | analgesia in knee OA (bradykinin receptor B2) | anti-inflammatory effect in knee OA (bradykinin receptor B2)
CC(C)C[C@@H]1NC(=O)[C@@H](C(C)C)NC(=O)[C@@H]2CCCN2C(=O)[C@@H](CC(=O)O)NC(=O)[C@@H](Cc2c[nH]c3ccccc23)NC1=O [BQ-123] (cyclo(L[dW][dD]P[dV])) | 2.83 | significantly ameliorated radiological indices of disease progression | 10.25 | 61.13 | diminished |  | 
NC(N)=NCCC[C@@H](N)C(=O)N[C@@H](CCCN=C(N)N)C(=O)N1CCC[C@H]1C(=O)N1C[C@H](O)C[C@H]1C(=O)NCC(=O)N[C@@H](Cc1cccs1)C(=O)N[C@@H](CO)C(=O)N1Cc2ccccc2C[C@@H]1C(=O)N1[C@H](C(=O)N[C@@H](CCCN=C(N)N)C(=O)O)C[C@@H]2CCCC[C@@H]21 [Icatibant] |  |  |  |  |  | provided local analgesia | no anti-inflammatory effect could be detected
C=C(N)NCC[C@@H](CC(=O)[C@@H](CCCC)CC(C)=O)C(=O)N1[C@H]2CCCC[C@@]2(C)C[C@H]1C(=O)N1CCC[C@@H]1C(=O)CCC(=O)NC(C)(Cc1ccccc1)C(=O)NC(CO)C(=O)C[C@H](Cc1cccc2ccccc12)C(=C)CC(C(=O)O)[C@H](C)CC (some centres unmarked) [R-954] | 2.50 | significantly ameliorated radiological indices of disease progression | 4.25 | 64.38 |  |  | 
